Results taken from patent US20260373176A1, “Compounds Targeting KRAS G12D Mutations and Their Uses” (InnoPharmaScreen Inc., priority 2023, published 2026).
“Also recorded” adds a separate entry of the source.

Experiments:
[1] = system: AsPC-1 pancreatic cancer cells; assay: In vivo tumor growth, AsPC-1 xenograft mice; parameters: species or system mouse (BALB/c nu/nu nude mice)
Protocol: We have conducted the in vivo tumor growth assay using AsPC-1 pancreatic cancer cell-implanted xenograft animals by requesting Eins solution (Gwanggyo, Korea).
Experimental procedures that involved animals and their care were conducted in compliance with the Guide for the Care and Use of Laboratory Animals15 and ARRIVE guidelines. Animal experiments were approved by Animal Care and Use Committee of Woojung center for phenogenomics (Hwasung, Korea) and conducted at WoojungBio Inc. (Hwasung, Korea) in accordance with the guidelines. BA LB/C (nu/nu) nude mice of both genders aged 6 weeks and weighing 16-22 g were purchased from Nara biotech Co, Ltd. (Seoul, Korea). The mice were housed in a pathogen-free environment at a temperature of 25 °C and relative air humidity between 45 and 50%. All surgeries were performed in a sterile environment. To establish subcutaneous […] tumors, 1×10^6 AsPC-1 cells/100 μL were subcutaneously injected into the left groin region of BALB/nu nu male mice (7 weeks old; Nara Biotech Inc., Seoul, Korea). Immediately before treatment, IPS-06061 was dissolved in DMSO and then diluted tenfold in normal saline. Tumor-baring mice in vehicle control, IPS-06061 (low), and IPS-06061 (high) groups were injected intravenously with vehicle (1:10 DMSO to saline, v/v), 30 mg/kg IPS-06061 solution, or 80 mg/kg IPS-06061 solution, respectively, twice a week for 28 days (n=10 mice per major group) (FIG. 11). Tumor growth rate was recorded on day 7, 14, 21, and 28 by measuring the major and minor axes with a digital caliper. Measurements were transformed into tumor volumes using the formula tumor volume (mm^3)=major axis×minor axis^2×0.5. Tumor, liver, and kidneys were collected from major groups on day 28 within 3 h of the last injection and weighed. The tumors were subsequently frozen in liquid nitrogen and stored at −80 °C until homogenization for western blotting.
To confirm the anti-tumor effect of IPS-06061, we employed a xenograft mouse model implanting AsPC-1 pancreatic cancer cells. After the tumor volume had grown to approximately 100 mm^3, IPS-06061 was administered […] twice a week for 28 days. […] Toxicity was assessed by measuring body weight, food intake, complete blood cell count, and biochemical blood chemistry.

KRAS G12D [2] = target: T1, KRAS G12D (Homo sapiens, UniProt P01116+Q96SW2, G12D); assay: Western blot analysis of KRAS G12D degradation in cells; assay type: cell-based; parameters: degradation by molecular glue via endogenous CRBN, western blot
Protocol: 2.0×10^5 cells were seeded into 6-well plates (SPL; cat. no. 30006). The next day, media was removed, and cells were treated with 0, 1, 5, 10, 50, 100 μM KRAS-MG in serum free media. For 24 h, 48 h, and 72 h. Cells were lysed using a RIPA buffer and clarified at 21,000×g for 15 min at 4 °C. Protein concentration of the supernatant was measured using a BCA reagent. (Thermofisher; cat. no. 23225) incubated at 37 °C for 30 mins. For each sample, equal amounts of protein were denatured and fractionated by Novex Wedge Well 4-20% Tris-Glycine Mini Gels (Invitrogen cat. no. XP04205BOX), and then transferred onto a Immobilon-PVDF Membrane membranes (Merck, cat. no. IPVH00010) at 80 V for 1 h at 4 °C. Membranes were blocked by placing them in a 5% BSA in Tris-buffered saline with Tween-20 (TBST; 20 mM Tris, 150 mM NaCl, 0.1% Tween-20) for 1 h. Membranes were then incubated overnight at 4 °C with primary antibodies against KRAS (1:1000, invitrogen: #703345), GAPDH (1:2000, Cell signaling #2118). After three washes with TBST, membranes were incubated with the appropriate HRP-conjugated secondary antibodies (1:1000, KwikQuant #R1006) for 1 hour RT. After three washing. Detection of bound antibodies was carried out using ECL reagents (KwikQuant #R1004) and bands were detected by ATTO Luminograph III Lite. The intensity of the KRAS band was quantified using ImageJ software and normalized to the intensity of GAPDH band.

KRAS G12D [3] = assay: KRAS G12D degradation in AsPC-1 xenograft mice; assay type: in vivo, mouse (BALB/c nu/nu nude mice); conditions: 80 mpk BiW, oral; at 28 days after treatment
KRAS G12D [4] = target: T1, KRAS G12D; assay: IPS-Chip PPIExplorer solid-phase cell-free ubiquitination of KRAS G12D using CRBN; assay type: biochemical; parameters: His-tagged CUL4A/RBX1/DDB1/CRBN E3; UBE1 (E1) and UbcH5a/UBE2D1 (E2) as helper enzymes; conditions: in the presence of CRBN, E1, E2, ubiquitin and ATP
Protocol: (§1) CaCo-2 (ATTC), H1975 (CRL-5908) and LS-180 (CCL-187) cells were obtained from ATCC, expanded immediately, and frozen down. Vials were thawed and used within 20 passages. SNU-407, SNU-1033 and SK-LU-1 cells were obtained from Korean Cell Line Bank, expanded immediately, and frozen down. Vials were thawed and used within 20 passages. Caco-2 cells were cultured in MEM (Welgene, LM007-07) supplemented with 10% FBS GenDEPOT; cat. no. F0900-050) and 1% Antibiotic Antimycotic solution (Welgene; cat. No. LS203-01). H1975, SNU-407, SNU-1033 cells were cultured in RPMI (Welgene, LM011-03) supplemented with 10% FBS GenDEPOT; cat. no. F0900-050) and 1% Antibiotic Antimycotic solution (Welgene; cat. No. LS203-01). SK-LU-1 and LS-180 cells were cultured in DMEM (Welgene, LM001-05) supplemented with 10% FBS GenDEPOT; cat. no. F0900-050) and 1% Antibiotic Antimycotic solution (Welgene; cat. No. LS203-01). PBS (Welgene; cat. no. LB004-02) was used to wash cells and 0.25% Trypsin-EDTA (Welgene; cat. no. LS015-01) was used to detach cells for passaging. […]
The 0.2 mg/ml 6× His tag monoclonal antibody was diluted in 30% glycerol in 1×PBS, pH 7.4, was spotted onto the IPS-Chip for 16 h at 4 °C. […] To detect polyubiquitination signals, the chip was scanned using a GenePix Pro 6.0 (Axon Instruments, CA, USA), and the data analyzed with an Origin 6.1 (Originlab, MA, USA).

[5] = Toxicity in AsPC-1 xenograft mice (body weight, food intake, blood count, blood chemistry); assay type: in vivo, mouse (BALB/c nu/nu nude mice)
Protocol: Experimental procedures that involved animals and their care were conducted in compliance with the Guide for the Care and Use of Laboratory Animals15 and ARRIVE guidelines. Animal experiments were approved by Animal Care and Use Committee of Woojung center for phenogenomics (Hwasung, Korea) and conducted at WoojungBio Inc. (Hwasung, Korea) in accordance with the guidelines. BA LB/C (nu/nu) nude mice of both genders aged 6 weeks and weighing 16-22 g were purchased from Nara biotech Co, Ltd. (Seoul, Korea). The mice were housed in a pathogen-free environment at a temperature of 25 °C and relative air humidity between 45 and 50%. All surgeries were performed in a sterile environment. To establish subcutaneous […] tumors, 1×10^6 AsPC-1 cells/100 μL were subcutaneously injected into the left groin region of BALB/nu nu male mice (7 weeks old; Nara Biotech Inc., Seoul, Korea). Immediately before treatment, IPS-06061 was dissolved in DMSO and then diluted tenfold in normal saline. […] Tumor growth rate was recorded on day 7, 14, 21, and 28 by measuring the major and minor axes with a digital caliper. […]
To confirm the anti-tumor effect of IPS-06061, we employed a xenograft mouse model implanting AsPC-1 pancreatic cancer cells. […] Toxicity was assessed by measuring body weight, food intake, complete blood cell count, and biochemical blood chemistry.

CRBN-KRAS G12D = target: T2, CRBN-KRAS G12D (Homo sapiens, UniProt P01116+Q96SW2, G12D); assay: SPR ternary complex formation assay of CRBN-KRAS G12D-MG (1:1 Langmuir binding model)
T2 construct: His-tag (for the complex); purchased Abcam (KRAS G12D); R&D systems (CUL4A/RBX1/DDB1/CRBN complex) ab268712; E3-650
Protocol: as §1, with “passaging. KRAS Mouse Monoclonal Antibody was purchased from Origene (cat. no. TA801672), anti-3-actin was purchased from AB Frontier (cat. no. LF-MA20055).” for “passaging.”
The injection was performed at a flow rate and for a contact time according to the Korea University Stem cell Lab guidelines. […] The sensorgrams were recorded using the embedded software imSPR-mini v 1.1.0. […]

KRAS WT = target: T3, KRAS WT (Homo sapiens, UniProt P01116+Q96SW2); assay: Western blot analysis of KRAS WT degradation in Caco-2 cells; assay type: cell-based
T3 construct: molecular glue degradation via endogenous CRBN, western blot
Protocol: as §1, with “LS203-01).” for “LS203-01). PBS (Welgene; cat. no. LB004-02) was used to wash cells and 0.25% Trypsin-EDTA (Welgene; cat. no. LS015-01) was used to detach cells for passaging.”
2.0×10^5 cells were seeded into 6-well plates (SPL; cat. no. 30006). […] Protein concentration of the supernatant was measured using a BCA reagent. […] Detection of bound antibodies was carried out using ECL reagents (KwikQuant #R1004) and bands were detected by ATTO Luminograph III Lite. The intensity of the KRAS band was quantified using ImageJ software and normalized to the intensity of GAPDH band.

KRAS = conditions: PROTAC recruiting CRBN; cited from earlier work

| Dmax (KRAS G12D [2]; ASPC1, KRAS G12D degradation, AsPC-1 cells) | DC50 (KRAS G12D [2]; KRAS G12D degradation, AsPC-1 cells) | selectivity for KRAS G12D over KRAS WT (CRBN-KRAS G12D; KRAS G12D vs KRAS WT) | SMILES | TGI ([1]; 80 mpk BiW, oral, AsPC-1 xenograft mice) | anti-cancer activity ([1]; AsPC-1 xenograft mice) | mean tumor growth vs vehicle ([1]; high dose 80 mpk, oral, twice a week for 28 days) | tumor weight ([1]; oral, twice a week for 28 days) | degradation of KRAS G12D (KRAS G12D [2]; western blot, AsPC-1 pancreatic cancer cells) | Maximum degradation (KRAS G12D [3]) | ubiquitination of KRAS G12D (KRAS G12D [4]) | body weight effect ([5]; AsPC-1 xenograft mice, twice a week, 28 days) | decreases in weight and food intake ([5]; oral, twice a week for 28 days, vs vehicle group) | ternary complex formation / binding to KRAS G12D (CRBN-KRAS G12D; CRBN + KRAS G12D) | effect on degradation of KRAS WT (KRAS WT) | poly-ubiquitination and degradation of KRAS (KRAS) |
| --- | --- | --- | --- | --- | --- | --- | --- | --- | --- | --- | --- | --- | --- | --- | --- |
| > 90% | < 500 nM | High selective for KRAS G12D | CCOC(=O)[C@H](CCc1ccccc1)N[C@@H](C)C(=O)c1ccccc1 [IPS-06061, ethyl (2S)-2-((1-oxo-1-phenylpropan-2-yl)amino)-4-phenylbutanoate] | ~ 100% | strong anti-cancer activity | remarkably reduced | significantly reduced tumor weight | Time-dependent degradation of KRAS G12D; also recorded: degrades KRAS G12D mutant | > 75% | promoted the ubiquitination of KRAS G12D in a dose-dependent manner | No body weight effect | such differences were not noted | binds specifically to KRAS G12D, forming a ternary complex | no effect on the degradation of KRAS WT; also recorded: without affecting KRAS Wild Type | – |
| – | – | – | C=C(F)C(=O)N1CCN(c2nc(OC[C@@H]3CCCN3CCCOCCC(=O)N[C@H](C(=O)N3C[C@H](O)C[C@H]3C(=O)NCc3ccc(-c4scnc4C)cc3)C(C)(C)C)nc3c2CCN(c2cccc4cccc(Cl)c24)C3)C[C@@H]1CC#N [LC2] | – | – | – | – | – | – | – | – | – | – | – | poly-ubiquitination of KRAS, thus proteosome-mediated degradation of the protein |
